# Data: US10344330B2, “Glatiramer acetate response biomarker mRNA potency assay” (Mylan Inc., priority 2013, dated 2019)
# Several values for one entry are separate records, joined by “and”; a condition that tells them apart may be missing. Equal values may be shown once.
# Assays:
# secreted IL-2 = experiment: Secreted IL-2 from treated LN cells (other experiments, data not shown); type: cell-based, mouse; details: increasing concentrations
# Text: This dose-dependent response was consistent for both test and reference compounds independent of whether Copaxone® or Mylan GMA was used as the immunizing antigen.
# [1] = test system: mouse IL-5 mRNA in primary LN cells; experiment: Mouse IL-5 mRNA in LN cells of Copaxone P53974-immunized CSJLF1/JRj mice stimulated with twelve GA lots (Example VIII); type: cell-based; details: stimulation conc. 2.5 μg/mL; for IL-5 mRNA/GAPDH Fold Change: normalized to GAPDH
# Method: A real-time polymerase chain reaction method was used to measure the expression of IL-2, IL-4, IL-5, and IL-13 mRNA in LN cells, from GA-immunized mice, following stimulation with one of twelve GA lots. One lot of GA (Copaxone P53974) was used for immunization. […] Twenty female CSJLF1/JRj mice (Janvier Labs), approximately 8-12 weeks of age, were immunized by injection of 0.1 mL injection volume into four footpads (about 10 μL into each of the front footpad, 40 μL into each of the hind footpad) on Day 0. […] Samples were prepared using TaqMan Universal PCR Master Mix II (Life Technologies) and run in 96-well plates using a Real-Time PCR system (7500, Life Technologies) using the following RT-PCR program: The levels of cytokine mRNA were calculated using a standard ΔΔCT method as described previously.
# mIL-4 mRNA in LN cells = mIL-4 mRNA in LN cells of Copaxone P53974-immunized CSJLF1/JRj mice, three identical experiments (Example VII); type: cell-based, mouse; details: 2.5 μg/mL, 6 hours
# Method: (§1) A real-time polymerase chain reaction method was used to measure the expression of IL-2, IL-4, IL-5, and IL-13 mRNA in GA-stimulated LN cells from GA-immunized mice. Three identical experiments were carried out. In each experiment, mice were immunized with GA, and LN cells from each group of mice were stimulated with each of six concentrations of the same batch of GA used for immunization. GAPDH and β-actin were used as reference genes.
# (§2) Each of the three groups consisted of four female CSJLF1/JRj (Janvier Labs) mice, approximately 8-12 weeks of age. On Day 0, mice were immunized by injection of 0.1 mL injection volume into four footpads (about 10 μL into each of the front footpad, 40 μL into each of the hind footpad). The immunization contained a total dose of 250 μg of one lot of GA (Copaxone batch P53974)+CFA (0.5 mg/mL). On Day 10 post-immunization, lymph cells were isolated from animals and stimulated with enriched DCCM-1 (mock-stimulated vehicle control), 2.5 μg/mL Concanavalin A (ConA, a positive control) or GA.
# (§3) Ten days following immunization, LN cell samples isolated from the immunized mice each were stimulated with 0.3, 1, 2.5, 5, 10, or 20 μg/mL of Copaxone batch P53974 as shown in Table 43.
# (§4) Total RNA was isolated from stimulated LN cells after 6 hours of incubation at about 37° C. in a humidified CO2 incubator, using the SV 96 Total RNA Isolation System according to the manufacturer's protocol (Promega, Cat. #Z3500). cDNA was synthesized from each RNA sample in triplicate using High Capacity cDNA Reverse Transcription Kit (Life Technologies, formerly Applied Biosystems) according to the manufacturer's protocol.
# (§5) Samples were prepared using TaqMan Universal PCR Master Mix II (Life Technologies) and run in 96-well plates using a Real-Time PCR system (7500, Life Technologies) using the following program for Real-Time PCR:
# (§6) The levels of cytokine mRNA were calculated using a standard ΔΔCT method as described previously.
# mIL-13 mRNA in LN cells = mIL-13 mRNA in LN cells of Copaxone P53974-immunized CSJLF1/JRj mice, three identical experiments (Example VII); type: cell-based, mouse; details: 2.5 μg/mL, 6 hours
# Method: as §1, §2, §3, §4, §5, §6
# [2] = test system: IL-1b secreted by LN cells; experiment: IL-1b secretion by GA-stimulated LN cells, MSD 9-plex ELISA (Example II); type: cell-based, mouse; details: 21 hr
# Method: (§7) Animals at 8 weeks of age were immunized by injection into four footpads using a 1 mL syringe with a 27-G, 1⁄2-inch needle. […] Ten days post-immunization, immunized animals were sacrificed via cervical dislocation. […] The LN cells were isolated by pressing the LN with the plunger end of a sterile syringe. […] Trypan blue exclusion method was used to determine the cell density of viable cells in the suspension. […] Cat. […] LN cells were plated into a 24-well tissue culture plate for drug stimulation. […] Cell debris was removed by centrifugation at ca. 200×g for 10 minutes at 4° C. Cytokines secreted by treated cells were determined on the day of collection by ELISA using mouse TH 1/TH 2 9-Plex Tissue Culture Kit (Meso Scale Discovery; Cat No. […]-2, Lot #: K0032839) which detects Th1 cytokines (IFN-γ, IL-2, IL-12, IL-1β, TNF-α, CXCL1) and Th2 cytokines (IL-4, IL-5 and IL-10). For IFN-γ, culture media also were assayed at 45 hours using mouse IFN-γ Tissue Culture Kit (Meso Scale Discovery; Cat No. […] For the positive control, 0.5 mL of LN cells (5×10^6 cells/well) were treated with 0.5 mL of ConA (5 μg/mL). For the negative control, 0.5 mL of LN cells (5×10^6 cells/well) were treated with 0.5 mL of MBP (20 μg/mL). The LN cells with mock stimulation (enriched DCCM1 medium) were used to monitor the background level of a cytokine. For the cytokine assays, calibration standards or samples were incubated in the MULTI-SPOT or the SINGLE-SPOT plate and each cytokine bound to its corresponding capture antibody. All test samples were run in duplicate. The amount of each cytokine on its distinct spot was quantified using a cytokine-specific detection antibody labeled with MSD SULFO-TAGTM reagent. Electrochemiluminescent signals from immobilized SULFO-TAGTM-labeled complexes on each spot from each well were captured by the MSD SECTOR Imager 6000, which produces a signal directly proportional to the amount of captured cytokine in a test sample. The levels of cytokines in test samples were derived by interpolation from calibration curves with calibration standards of known concentrations using reagents provided with the MSD kits. Kits were used according to the manufacturer's protocols. […] Data are expressed as a response ratio of cytokine concentration in treated cell medium to control DCCM1 medium.
# [3] = test system: KC (CXCL1) secreted by LN cells; experiment: KC (CXCL1) secretion by GA-stimulated LN cells, MSD 9-plex ELISA (Example II); type: cell-based, mouse; details: 21 hr
# Method: as §7
# [4] = BALB/cByJ, immunized Mannitol Intraplantar
# [5] = C57BL10J, immunized GA Intraplantar
# [6] = C57BL10J, immunized Mannitol Intraplantar
# [7] = CD-1, immunized GA Intraplantar
# [8] = CD-1, immunized Mannitol Intraplantar
# [9] = BALB/cByJ, immunized GA Intraplantar
Molecule,"IL-1b secretion response ratio (treated cell medium to control DCCM1 medium) [2, 4]","IL-1b secretion response ratio (treated cell medium to control DCCM1 medium) [2, 5]","IL-1b secretion response ratio (treated cell medium to control DCCM1 medium) [2, 6]","IL-1b secretion response ratio (treated cell medium to control DCCM1 medium) [2, 7]","IL-1b secretion response ratio (treated cell medium to control DCCM1 medium) [2, 8]","KC secretion response ratio (treated cell medium to control DCCM1 medium) [3, 9]","KC secretion response ratio (treated cell medium to control DCCM1 medium) [3, 4]","KC secretion response ratio (treated cell medium to control DCCM1 medium) [3, 6]","KC secretion response ratio (treated cell medium to control DCCM1 medium) [3, 7]","KC secretion response ratio (treated cell medium to control DCCM1 medium) [3, 8]",other results
"L-glutamic acid polymer with L-alanine, L-lysine and L-tyrosine, acetate (salt) [GA]",–,–,–,–,–,–,–,–,–,–,secreted IL-2 from treated cells (secreted IL-2): increased in dose-dependent fashion
"Concanavalin A [ConA, reference compound]",7.83,2.21,1.40,8.50,3.37,1.52,1.00,1.34,1.56,2.55,IL-5 mRNA/B-Actin Fold Change ([1]; normalized to B-Actin): 23.6 fold and 20.9 fold and 21.3 fold and 21.4 fold; IL-5 mRNA/GAPDH Fold Change [1]: 23.6 fold and 20.0 fold and 20.6 fold and 22.3 fold; IL-5 mRNA/GAPDH Fold Change ([1]; ΔΔCT): 25.7 fold and 32.7 fold and 22.2 fold and 20.8 fold and 26.0 fold and 25.2 fold and 30.3 fold and 29.3 fold; IL-4 mRNA/Actβ Fold Change (mIL-4 mRNA in LN cells; Group 1): 54.5 fold; IL-4 mRNA/GAPDH Fold Change (mIL-4 mRNA in LN cells; Group 1): 35.6 fold; IL-4 mRNA/Actβ Fold Change (mIL-4 mRNA in LN cells; Group 2): 38.5 fold; IL-4 mRNA/GAPDH Fold Change (mIL-4 mRNA in LN cells; Group 2): 34.2 fold; IL-4 mRNA/Actβ Fold Change (mIL-4 mRNA in LN cells; Group 3): 35.7 fold; IL-4 mRNA/GAPDH Fold Change (mIL-4 mRNA in LN cells; Group 3): 21.8 fold; IL-13 mRNA/Actβ Fold Change (mIL-13 mRNA in LN cells; Group 1): 33.3 fold; IL-13 mRNA/GAPDH Fold Change (mIL-13 mRNA in LN cells; Group 1): 24.1 fold; IL-13 mRNA/Actβ Fold Change (mIL-13 mRNA in LN cells; Group 2): 28.4 fold; IL-13 mRNA/GAPDH Fold Change (mIL-13 mRNA in LN cells; Group 2): 23.8 fold; IL-13 mRNA/Actβ Fold Change (mIL-13 mRNA in LN cells; Group 3): 25.7 fold; IL-13 mRNA/GAPDH Fold Change (mIL-13 mRNA in LN cells; Group 3): 17.8 fold
"MBP: myelin basic protein, a negative control (protein, UniProt P02686 1-304, looked up) Myelin basic protein: MGNHAGKRELNAEKASTNSETNRGESEKKRNLGELSRTTSEDNEVFGEADANQNNGTSSQDTAVTDSKRTADPKNAWQDAHPADPGSRPHLIRLFSRDAPGREDNTFKDRPSESDELQTIQEDSAATSESLDVMASQKRPSQRHGSKYLATASTMDHARHGFLPRHRDTGILDSIGRFFGGDRGAPKRGSGKDSHHPARTAHYGSLPQKSHGRTQDENPVVHFFKNIVTPRTPPPSQGKGRGLSLSRFSWGAEGQRPGFGYGGRASDYKSAHKGFKGVDAQGTLSKIFKLGGRDSRSGSPMARR",0.87,0.99,0.92,1.37,1.20,1.04,0.96,1.12,1.05,1.09,–
